Source: ChEMBL document CHEMBL5331106, “Investigation into the Mechanism of Action of the Tuberculosis Drug Candidate SQ109 and Its Metabolites and Analogues in Mycobacteria” (J Med Chem, 2023)

Legend:
[1] = molecular target: T1, Undecaprenyl-diphosphatase (Escherichia coli (strain K12), UniProt P60932); test: Inhibition of UppP in Escherichia coli using FPP as substrate pretreated for 20 mins followed by FPP addition and measured after 60 mins by malachite green based assay
T1 sequence (P60932 whole entry): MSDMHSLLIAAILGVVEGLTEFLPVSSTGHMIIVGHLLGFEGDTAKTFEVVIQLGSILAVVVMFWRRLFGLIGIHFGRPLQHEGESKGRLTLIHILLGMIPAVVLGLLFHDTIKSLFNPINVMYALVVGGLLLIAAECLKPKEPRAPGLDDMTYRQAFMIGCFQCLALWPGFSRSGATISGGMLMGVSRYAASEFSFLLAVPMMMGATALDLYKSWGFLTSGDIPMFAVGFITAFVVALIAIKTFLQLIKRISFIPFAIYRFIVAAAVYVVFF

[2] = tested on: Mycobacterium tuberculosis; test: Antimycobacterial activity against Mycobacterium tuberculosis HN878 assessed as inhibition of mycobacterial growth incubated for 5 days in presence of 50 uM undecaprenyl phosphate; type: functional, organism-based; details: HN878, 120 h
[3] = tested on: Mycolicibacterium smegmatis; test: Antimycobacterial activity against Mycobacterium smegmatis assessed as inhibition of mycobacterial growth incubated for 48 hrs; type: functional, organism-based
Cell membrane = test: Uncoupling activity in Escherichia coli inverted membrane vesicles assessed as collapse of pH gradient by measuring increase in ACMA fluorescence intensity by fluorometric analysis; type: subcellular
[4] = tested on: Mycolicibacterium smegmatis; test: Antimycobacterial activity against Mycobacterium smegmatis assessed as inhibition of mycobacterial growth incubated for 48 hrs in presence of 50 uM undecaprenyl phosphate; type: functional, organism-based
[5] = tested on: Mycolicibacterium smegmatis; test: Rescue fold, ratio of IC50 for antimycobacterial activity against Mycobacterium smegmatis in presence of 50 uM undecaprenyl phosphate to IC50 for antimycobacterial activity against Mycobacterium smegmatis; type: functional
[6] = tested on: Mycobacterium tuberculosis; test: Antimycobacterial activity against Mycobacterium tuberculosis HN878 assessed as inhibition of mycobacterial growth incubated for 5 days; type: functional, organism-based; details: HN878, 120 h
[7] = tested on: Mycolicibacterium smegmatis; test: Antimycobacterial activity against Mycobacterium smegmatis assessed as inhibition of mycobacterial growth incubated for 48 hrs in presence of 50 uM menaquinone-4; type: functional, organism-based
[8] = tested on: Mycolicibacterium smegmatis; test: Rescue fold, ratio of IC50 for antimycobacterial activity against Mycobacterium smegmatis in presence of 100 uM menaquinone-7 to IC50 for antimycobacterial activity against Mycobacterium smegmatis; type: functional
[9] = tested on: Mycolicibacterium smegmatis; test: Rescue fold, ratio of IC50 for antimycobacterial activity against Mycobacterium smegmatis in presence of 100 uM menaquinone-4 to IC50 for antimycobacterial activity against Mycobacterium smegmatis; type: functional
[10] = tested on: Mycolicibacterium smegmatis; test: Antimycobacterial activity against Mycobacterium smegmatis assessed as inhibition of mycobacterial growth incubated for 48 hrs in presence of 50 uM Upp; type: functional, organism-based

Compound	IC50 [1]	IC50 [2]	IC50 [3]	IC50 (Cell membrane)	IC50 [4]	Ratio IC50 [5]	IC50 [6]	IC50 [7]	Ratio IC50 [8]	Ratio IC50 [9]	IC50 [10]
CC(C)CCCC(C)CCNCCNC1C2CC3CC(C2)CC1C3 (stereo not drawn)	15 µM	16 µM	9.3 µM	5.2 µM	9.1 µM	1	1.7 µM	–	–	–	–
NC1C2CC3CC(C2)CC1C3 (stereo not drawn)	–	–	> 500 µM	> 1000 µM	–	–	> 25 µM	–	–	–	–
CC(C)=CCC/C(C)=C/CNCCNC1C2CC3CC1CC(O)(C3)C2 (stereo not drawn)	–	–	42 µM	18 µM	57 µM	1.4	> 25 µM	–	–	–	–
CC(C)=CCC/C(C)=C/CNCCNC1C2CC3CC(C2)CC1(O)C3 (stereo not drawn)	–	–	5 µM	9.1 µM	15 µM	3	0.81 µM	–	–	–	–
CC(C)=CCC/C(C)=C/C(=O)O	–	–	> 500 µM	> 1000 µM	–	–	> 25 µM	–	–	–	–
CCCCc1ccc(-c2nc(C)c(/C(C)=N/NC(=N)N)s2)cc1	–	–	11 µM	–	89 µM	7.8	–	9.8 µM	–	–	–
O=C1C2CC3CC(C2)CC1C3	–	–	> 500 µM	> 1000 µM	–	–	> 25 µM	–	–	–	–
CC(C)=CCC/C(C)=C/CNCCOC1C2CC3CC(C2)CC1C3 (stereo not drawn)	21 µM	0.54 µM	1.3 µM	1.2 µM	11 µM	9	0.07 µM	–	–	–	–
CC(C)=CCC/C(C)=C/COCCNC1C2CC3CC(C2)CC1C3 (stereo not drawn)	91 µM	2.8 µM	7.3 µM	55 µM	9.8 µM	1.3	1.3 µM	–	–	–	–
CC(C)=CCCC1(C)CC=NO1 (stereo not drawn)	–	–	> 500 µM	> 1000 µM	–	–	> 25 µM	–	–	–	–
CC(C)=CCC/C(C)=C/CCNCCNC1C2CC3CC(C2)CC1C3 (stereo not drawn)	16 µM	8 µM	2.7 µM	1.9 µM	48 µM	18	0.82 µM	–	2	2	–
CC(C)=CCC/C(C)=C/CNCCNC1[C@H]2C[C@@H]3C[C@H](C2)[C@@H](O)[C@H]1C3 (stereo partly drawn)	–	–	11 µM	12 µM	24 µM	2.2	4.2 µM	–	–	–	–
CC(C)=CCC/C(C)=C/C(C)(C)NCCNC1C2CC3CC(C2)CC1C3 (stereo not drawn)	37 µM	8.7 µM	1.9 µM	1.1 µM	43 µM	23	0.61 µM	–	–	–	–
CC(C)=CCC/C(C)=C/CN	–	–	> 500 µM	307 µM	–	–	> 25 µM	–	–	–	–
c1ccc(CCNC2CCCc3c2[nH]c2ccc(C4CCCCC4)cc32)cc1 (stereo not drawn)	–	–	14 µM	–	56 µM	–	–	–	–	–	14 µM
CC(C)=CCC/C(C)=C/CCNCCNC1C2CC3CC1CC(F)(C3)C2 (stereo not drawn)	153 µM	8.8 µM	8 µM	5.5 µM	38 µM	4.8	1.5 µM	–	–	–	–
C/C(=C\CNCCNC1C2CC3CC(C2)CC1C3)CCC(=O)C(C)C (stereo not drawn)	–	–	26 µM	15 µM	63 µM	2.4	14 µM	–	–	–	–
ON=C1C2CC3CC(C2)CC1C3	–	–	> 500 µM	> 1000 µM	–	–	> 25 µM	–	–	–	–
CC(C)=CCC/C(C)=C/CNCCNC1C2CC3CC1CC(C2)C3O (stereo not drawn)	–	–	42 µM	19 µM	67 µM	1.6	> 25 µM	–	–	–	–
CCCCCCCCCCCNCCNC1C2CC3CC(C2)CC1C3 (stereo not drawn)	18 µM	24 µM	3.9 µM	0.87 µM	8.9 µM	2.3	1.9 µM	–	–	–	–
NCCNC1C2CC3CC(C2)CC1C3 (stereo not drawn)	–	–	> 500 µM	130 µM	–	–	> 25 µM	–	–	–	–
CC(C)=CCC/C(C)=C/CNCCN	–	–	> 500 µM	77 µM	–	–	> 25 µM	–	–	–	–
CC(C)=CCC/C(C)=C/C=N\O	–	–	> 500 µM	> 1000 µM	–	–	> 25 µM	–	–	–	–
C/C(=C\CC/C(C)=C/CNCCNC1C2CC3CC(C2)CC1C3)CO (stereo not drawn)	–	–	20 µM	17 µM	24 µM	1.2	> 16 µM	–	–	–	–
CC(C)=CCC/C(C)=C/C=O [CITRAL]	–	–	> 500 µM	> 1000 µM	–	–	> 25 µM	–	–	–	–
